Experimental data reported in patent publication US9365556B2, “3,5-diaminopyrazole kinase inhibitors” (Axikin Pharmaceuticals, Inc., priority 2012, dated 2016).

Legend:
[1] = biological target: T1, kinase domain protein of RC kinase (Homo sapiens, UniProt Q56UN5); experiment: Enzymatic assay for kinase inhibitory activity (Crebtide substrate, LANCE read-out); assay type: biochemical; conditions: compound at 1 μM
T1 sequence (Q56UN5 1061-1324 limits assumed): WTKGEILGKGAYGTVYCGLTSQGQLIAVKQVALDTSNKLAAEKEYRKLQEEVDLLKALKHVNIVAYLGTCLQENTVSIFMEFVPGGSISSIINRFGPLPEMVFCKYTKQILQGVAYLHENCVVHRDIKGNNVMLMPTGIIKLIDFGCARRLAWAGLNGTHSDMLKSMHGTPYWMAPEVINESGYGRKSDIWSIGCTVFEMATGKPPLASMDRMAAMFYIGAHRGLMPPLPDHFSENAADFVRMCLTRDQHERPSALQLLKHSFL
Summary of the method: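 Compound tested at 1 μM final in HEPES/MgCl2/DTT buffer with 50 nM Crebtide and kinase domain at 1 μM ATP; full-length kinase at 3 μM ATP after 45 min preincubation. Reaction 45 min at room temperature, stopped with EDTA, read by LANCE TR-FRET (665/615 nm). Activity binned as % inhibition at 1 μM.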

inhibition at 1 µM [1] [%] | melting point [°C] | Compound | Activity (inhibition of the RC kinase activity) ([1]; 1 µM) | Activity (inhibition of the RC kinase activity) [1]
≤ 5 | 102 to 105 | CS(=O)(=O)N1CCC(/C=N/c2[nH]nc(Nc3cccc(Cl)c3)c2C#N)CC1 [Compound A80] |  | 
5 to 20 | 75 to 80 | N#Cc1c(Nc2cccc(Cl)c2)n[nH]c1/N=C/c1ccccc1-c1cccs1 [Compound A81] |  | 
≤ 5 | 164 to 176 | N#Cc1c(Nc2cccc(Cl)c2)n[nH]c1/N=C/c1ccc(OC(F)F)c(O)c1 [Compound A82] |  | 
≤ 5 | 326 to 329 | N#Cc1c(Nc2cccc(Cl)c2)n[nH]c1/N=C/c1ccc(-c2ccccn2)cc1 [Compound A84] |  | 
≤ 5 | 305 to 309 | N#Cc1c(Nc2cccc(Cl)c2)n[nH]c1/N=C/c1cncc(N2CCCC2)c1 [Compound A86] |  | 
≤ 5 | 284 to 288 | N#Cc1c(Nc2cccc(Cl)c2)n[nH]c1/N=C/c1ccc(-n2cncn2)cc1 [Compound A87] |  | 
5 to 20 | 229 to 232 | N#Cc1c(Nc2cccc(Cl)c2)n[nH]c1/N=C/c1ccc(OCCO)cc1 [Compound A88] |  | 
≤ 5 | 276 to 281 | N#Cc1c(Nc2cccc(Cl)c2)n[nH]c1/N=C/c1ccc2snnc2c1 [Compound A90] |  | 
≤ 5 | 283 to 284 | N#Cc1c(Nc2cccc(Cl)c2)n[nH]c1/N=C/c1ccc(Cl)cc1O [Compound A91] |  | 
20 to 50 | 217 to 220 | COc1ccc(/C=N/c2[nH]nc(Nc3cccc(Cl)c3)c2C#N)cc1F [Compound A93] |  | 
20 to 50 | 232 to 238 | N#Cc1c(Nc2cccc(Cl)c2)n[nH]c1/N=C/c1ccc(F)cc1O [Compound A98] |  | 
5 to 20 | 253 to 257 | Cc1cc(F)ccc1/C=N/c1[nH]nc(Nc2cccc(Cl)c2)c1C#N [Compound A99] |  | 
5 to 20 | 286 to 291 | COc1ccc(/C=N/c2[nH]nc(Nc3cccc(Cl)c3)c2C#N)cn1 [Compound A100] |  | 
≤ 5 | 293 to 296 | Cc1ccc(/C=N/c2[nH]nc(Nc3cccc(Cl)c3)c2C#N)c(O)c1 [Compound A101] |  | 
5 to 20 | 266 to 274 | N#Cc1ccc(/C=N/c2[nH]nc(Nc3cccc(Cl)c3)c2C#N)cc1 [Compound A102] |  | 
 | 221 to 225 | N#Cc1c(Nc2cccc(Cl)c2)n[nH]c1/N=C/c1cnc(N)s1 [Compound A103] | D (no greater than 5% inhibition of the RC kinase activity at 1 μM) | 
≤ 5 | 240 to 248 | N#Cc1c(Nc2cccc(Cl)c2)n[nH]c1/N=C/c1cc[nH]c1 [Compound A106] |  | 
20 to 50 | 311 to 314 | N#Cc1c(Nc2cccnc2)n[nH]c1/N=C/c1ccc(O)cc1 [Compound A110] |  | 
20 to 50 | 224 to 230 | N#Cc1c(Nc2cccc(Cl)c2)n[nH]c1/N=C/c1ccc(Oc2ncccn2)cc1 [Compound A111] |  | 
 | 268 to 270 | N#Cc1c(Nc2cccc(Cl)c2)n[nH]c1/N=C/c1ccc(Oc2ccc(C(F)(F)F)cn2)cc1 [Compound A112] |  | C (no greater than 20% but at least 5% inhibition of the RC kinase activity at 1 μM)
5 to 20 | 238 to 246 | COc1cccc(O)c1/C=N/c1[nH]nc(Nc2ccccc2Cl)c1C(N)=O [Compound B1] |  | 
≥ 50 | 296 to 298 | NC(=O)c1c(Nc2cccc(Cl)c2)n[nH]c1N=Cc1ccc(O)c([N+](=O)[O-])c1 [Compound B2, 3-((3-chlorophenyl)amino)-5-((4-hydroxy-3-nitrobenzylidene)amino)-1H-pyrazole-4-carboxamide] |  | 
5 to 20 | 295 to 297 | COc1ccc(C=Nc2[nH]nc(Nc3cccc(Cl)c3)c2C(N)=O)cc1 [Compound B3, 3-((3-chlorophenyl)amino)-5-((4-methoxybenzylidene)amino)-1H-pyrazole-4-carboxamide] |  | 
5 to 20 | 303 to 305 | NC(=O)c1c(Nc2cccc(Cl)c2)n[nH]c1/N=C/c1ccc(Cl)cc1 [Compound B4, 5-((4-chlorobenzylidene)amino)-3-((3-chlorophenyl)amino)-1H-pyrazole-4-carboxamide] |  | 
≥ 50 | 261 to 263 | NC(=O)c1c(Nc2cccc(Cl)c2)n[nH]c1/N=C/c1ccc(O)cc1 [Compound B5] |  | 
≥ 50 | 268 to 270 | COc1cc(/C=N/c2[nH]nc(Nc3cccc(Cl)c3)c2C(N)=O)ccc1O [Compound B7] |  | 
20 to 50 | 283 to 285 | COc1cccc(/C=N/c2[nH]nc(Nc3cccc(Cl)c3)c2C(N)=O)c1 [Compound B8] |  | 

inhibition at 1 µM [1] [%] | melting point [°C] | Compound | Activity (inhibition of the RC kinase activity) ([1]; 1 µM) | Activity (inhibition of the RC kinase activity) [1]
≥ 50 | 275 to 277 | NC(=O)c1c(Nc2ccccc2)n[nH]c1/N=C/c1ccc(O)c([N+](=O)[O-])c1 [Compound B9] |  | 
5 to 20 | 291 to 293 | NC(=O)c1c(Nc2ccccc2)n[nH]c1/N=C/c1ccc(Cl)cc1 [Compound B12] |  | 
20 to 50 | 257 to 260 | COc1ccc(/C=N/c2[nH]nc(Nc3ccccc3)c2C(N)=O)cc1 [Compound B13] |  | 
5 to 20 | 280 to 283 | NC(=O)c1c(Nc2cccc(Cl)c2)n[nH]c1/N=C/c1cccc2ccccc12 [Compound B15] |  | 
20 to 50 | 270 to 273 | COc1ccccc1/C=N/c1[nH]nc(Nc2cccc(Cl)c2)c1C(N)=O [Compound B18] |  | 
20 to 50 | 265 to 267 | NC(=O)c1c(Nc2cccc(Cl)c2)n[nH]c1/N=C/c1c[nH]cn1 [Compound B19] |  | 
20 to 50 | 273 to 277 | NC(=O)c1c(Nc2ccc(Cl)cc2)n[nH]c1/N=C/c1ccc[nH]1 [Compound B20] |  | 
5 to 20 | 303 to 306 | NC(=O)c1c(Nc2ccc(Cl)cc2)n[nH]c1/N=C/c1ccccc1 [Compound B21] |  | 
20 to 50 | 295 to 297 | NC(=O)c1c(Nc2ccc(Cl)cc2)n[nH]c1/N=C/c1ccc(O)c([N+](=O)[O-])c1 [Compound B22] |  | 
≤ 5 | 313 to 315 | COc1ccc(/C=N/c2[nH]nc(Nc3ccc(Cl)cc3)c2C(N)=O)cc1 [Compound B23] |  | 
≤ 5 | 307 to 309 | NC(=O)c1c(Nc2ccc(Cl)cc2)n[nH]c1/N=C/c1ccc(Cl)cc1 [Compound B24] |  | 
≤ 5 | 290 to 296 | NC(=O)c1c(Nc2ccc(Cl)cc2)n[nH]c1/N=C/c1cccc2ccccc12 [Compound B25] |  | 
≥ 50 | 288 to 289 | NC(=O)c1c(Nc2ccc(Cl)cc2)n[nH]c1/N=C/c1ccc(O)cc1 [Compound B26] |  | 
5 to 20 | 291 to 293 | NC(=O)c1c(Nc2ccc(Cl)cc2)n[nH]c1/N=C/c1ccc([N+](=O)[O-])cc1 [Compound B27] |  | 
≥ 50 | 220 to 225 | NC(=O)c1c(Nc2cccc(Cl)c2)n[nH]c1/N=C/c1ccc(O)cc1O [Compound B30] |  | 
≤ 5 | 279 to 283 | COc1cccc(/C=N/c2[nH]nc(Nc3ccc(Cl)cc3)c2C(N)=O)c1 [Compound B33] |  | 
≤ 5 | 270 to 273 | COc1ccccc1/C=N/c1[nH]nc(Nc2ccc(Cl)cc2)c1C(N)=O [Compound B34] |  | 
≥ 50 | 243 to 246 | NC(=O)c1c(Nc2ccc(Cl)cc2)n[nH]c1/N=C/c1ccc(O)cc1O [Compound B36] |  | 
5 to 20 | 281 to 283 | NC(=O)c1c(Nc2cccc(Cl)c2)n[nH]c1/N=C/c1cc(Br)ccc1O [Compound B49, 5-((5-bromo-2-hydroxybenzylidene)amino)-3-((3-chlorophenyl)amino)-1H-pyrazole-4-carboxamide] |  | 
5 to 20 | 283 to 287 | NC(=O)c1c(Nc2cccc(Cl)c2)n[nH]c1/N=C/c1cc(Cl)ccc1O [Compound B50] |  | 
5 to 20 | 271 to 274 | COc1cccc(/C=N/c2[nH]nc(Nc3cccc(Cl)c3)c2C(N)=O)c1O [Compound B53] |  | 
5 to 20 | 284 to 286 | NC(=O)c1c(Nc2cccc(Cl)c2)n[nH]c1/N=C/c1ccccc1O [Compound B54] |  | 
5 to 20 | 301 to 304 | NC(=O)c1c(Nc2ccccc2Cl)n[nH]c1/N=C/c1ccc(O)c([N+](=O)[O-])c1 [Compound B113] |  | 
20 to 50 | 294 to 296 | NC(=O)c1c(Nc2ccccc2Cl)n[nH]c1/N=C/c1ccc([N+](=O)[O-])c(O)c1 [Compound B114] |  | 
≥ 50 | 254 to 258 | NC(=O)c1c(Nc2ccccc2Cl)n[nH]c1/N=C/c1ccc(O)cc1 [Compound B117] |  | 
5 to 20 | 304 to 306 | COc1ccc(/C=N/c2[nH]nc(Nc3ccccc3Cl)c2C(N)=O)cc1[N+](=O)[O-] [Compound B118] |  | 
